Assay results as given in patent publication US10399948B2, “Negative allosteric modulators of metabotropic glutamate receptor 3” (Vanderbilt University, priority 2015, dated 2019).

Tests used:
[1] = target: rat mGlu3 (Rattus norvegicus (Rat), UniProt P31422); assay: mGlu3 Ca2+ flux assay; format: cell-based; conditions: for IC50: NAM, glutamate EC80, >10,000 = decrease without plateau, >30,000 = no measurable activity; for remaining activity at 30 µM: response at 30 μM test compound as percentage of maximal response to glutamate, read-out: rat mGlu3 Glu max (%)
Sequence of rat mGlu3 (P31422 23-879): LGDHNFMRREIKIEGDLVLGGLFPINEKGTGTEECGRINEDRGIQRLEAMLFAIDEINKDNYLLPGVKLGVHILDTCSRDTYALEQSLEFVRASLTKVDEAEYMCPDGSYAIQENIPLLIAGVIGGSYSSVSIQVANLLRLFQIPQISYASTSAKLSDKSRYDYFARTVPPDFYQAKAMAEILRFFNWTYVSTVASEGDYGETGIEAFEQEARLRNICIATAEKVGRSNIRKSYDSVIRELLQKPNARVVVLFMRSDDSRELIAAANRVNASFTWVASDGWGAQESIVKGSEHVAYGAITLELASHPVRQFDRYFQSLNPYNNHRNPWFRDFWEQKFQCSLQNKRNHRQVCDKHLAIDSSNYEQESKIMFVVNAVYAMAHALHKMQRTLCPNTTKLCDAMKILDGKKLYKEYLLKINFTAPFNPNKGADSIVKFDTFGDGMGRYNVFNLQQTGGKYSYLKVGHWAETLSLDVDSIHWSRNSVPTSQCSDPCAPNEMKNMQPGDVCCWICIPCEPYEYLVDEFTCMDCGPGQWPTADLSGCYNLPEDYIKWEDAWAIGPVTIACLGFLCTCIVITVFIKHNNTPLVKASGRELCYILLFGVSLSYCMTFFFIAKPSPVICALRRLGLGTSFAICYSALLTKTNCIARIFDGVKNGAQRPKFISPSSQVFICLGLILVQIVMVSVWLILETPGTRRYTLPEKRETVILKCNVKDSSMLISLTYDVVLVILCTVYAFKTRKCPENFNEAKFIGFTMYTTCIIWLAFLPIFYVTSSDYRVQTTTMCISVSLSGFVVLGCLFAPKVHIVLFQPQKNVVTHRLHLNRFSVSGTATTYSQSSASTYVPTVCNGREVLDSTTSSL
Procedure: Gα15/TREx cells stably expressing rat mGlu3 were plated in black-walled, clear-bottomed, poly-D-lysine coated 384-well plates in 20 μL of assay medium (DMEM containing 10% dialyzed FBS, 20 mM HEPES, 25 ng/mL tetracycline, 100 units/mL penicillin/streptomycin plus 250 ng/mL Fungizone, and 1 mM sodium pyruvate) at a density of 15K cells/well. The cells were grown overnight at 37° C. in the presence of 5% CO2. […] Dye was removed, 20 μL of assay buffer was added, and the plate was incubated for 10 minutes at room temperature.
(§1) Ca^2+ flux was measured using the Functional Drug Screening System (FDSS7000, Hamamatsu, Japan). After establishment of a fluorescence baseline for about 3 seconds, the compounds of the present invention were added to the cells, and the response in cells was measured. 2.3 minutes later an EC20 concentration of the mGlu3 receptor agonist glutamate was added to the cells, and the response of the cells was measured for 1.9 minutes; an EC80 concentration of agonist was added and readings taken for an additional 1.7 minutes. All test compounds were dissolved and diluted to a concentration of 10 mM in 100% DMSO. Compounds were then serially diluted 1:3 in DMSO into 10 point concentration response curves, transferred to daughter plates, and further diluted into assay buffer to a 2× stock. Calcium fluorescence measures were recorded as fold over basal fluorescence; raw data was then normalized to the maximal response to glutamate.
(§2) The raw data file containing all time points was used as the data source in the analysis template. This was saved by the FDSS as a tab-delimited text file. Data were normalized using a static ratio function (F/F0) for each measurement of the total 360 values per well divided by each well's initial value. Data were then reduced to peak amplitudes (Max−Initial Min) using a time range that starts approximately 3 seconds prior to the glutamate EC80 addition and continues for approximately 90 seconds. This is sufficient time to capture the peak amplitude of the cellular calcium response. Individual amplitudes were expressed as % EMax by multiplying each amplitude by 100 and then dividing the product by the mean of the amplitudes derived from the glutamate ECMax-treated wells. EC50 values for test compounds were generated by fitting the normalized values versus the log of the test compound concentration (in mol/L) using a 4 parameter logistic equation where none of the parameters were fixed. Each of the three values collected at each concentration of test compound were weighted evenly.

[2] = target: rat mGlu2 (Rattus norvegicus (Rat), UniProt P31421); assay: mGlu2 Ca2+ flux assay; format: cell-based; conditions: NAM, glutamate EC80; >30,000 = no measurable activity
Sequence of rat mGlu2 (P31421 19-872): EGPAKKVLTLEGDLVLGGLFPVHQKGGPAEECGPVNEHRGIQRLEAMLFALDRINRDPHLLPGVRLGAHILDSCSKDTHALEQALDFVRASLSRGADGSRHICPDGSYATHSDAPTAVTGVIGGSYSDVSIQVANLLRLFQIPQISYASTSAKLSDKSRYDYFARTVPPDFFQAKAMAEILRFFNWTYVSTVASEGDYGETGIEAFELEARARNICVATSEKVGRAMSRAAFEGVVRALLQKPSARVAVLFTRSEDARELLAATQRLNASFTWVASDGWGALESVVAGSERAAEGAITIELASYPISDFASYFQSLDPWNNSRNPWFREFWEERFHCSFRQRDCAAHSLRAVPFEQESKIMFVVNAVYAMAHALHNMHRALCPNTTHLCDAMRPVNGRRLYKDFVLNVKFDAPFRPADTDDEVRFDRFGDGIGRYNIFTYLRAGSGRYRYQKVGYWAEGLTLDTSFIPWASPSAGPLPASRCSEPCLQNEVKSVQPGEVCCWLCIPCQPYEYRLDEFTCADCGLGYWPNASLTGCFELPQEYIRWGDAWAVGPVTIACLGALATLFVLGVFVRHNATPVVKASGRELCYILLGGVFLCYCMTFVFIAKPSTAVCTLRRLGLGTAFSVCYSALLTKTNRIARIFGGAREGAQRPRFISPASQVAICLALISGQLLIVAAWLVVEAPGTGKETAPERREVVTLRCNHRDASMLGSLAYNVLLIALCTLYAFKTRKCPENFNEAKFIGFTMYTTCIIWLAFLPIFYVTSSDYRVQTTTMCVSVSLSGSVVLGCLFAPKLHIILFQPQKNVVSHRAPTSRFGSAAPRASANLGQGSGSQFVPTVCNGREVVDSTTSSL
Procedure: Gα15 HEK293 cells stably expressing rat mGlu2 were plated in black-walled, clear-bottomed, poly-D-lysine coated 384-well plates in 20 μL of assay medium (DMEM containing 10% dialyzed FBS, 20 mM HEPES, and 1 mM sodium pyruvate) at a density of 12K cells/well. The cells were grown overnight at 37° C. in the presence of 5% CO2. The next day, medium was removed and the cells incubated with 20 μL of […] Fluo-4, AM prepared as a 2.3 mM stock in DMSO and mixed in a 1:1 ratio with 10% (w/v) pluronic acid F-127 and diluted in assay buffer (Hank's balanced salt solution, 20 mM HEPES, and 2.5 mM probenecid) for 45 minutes at 37° C. Dye was removed, 20 μL of assay buffer was added, and the plate was incubated for 5 minutes at room temperature.
as §1, with “mGlu2” for “mGlu3”
as §2, with “ECMax” for “EMax”, “IC50” for “EC50”

Compound	IC50 [1]	remaining activity at 30 µM [1]	IC50 [2]
O=c1cc(OCCOc2ccccc2)cnn1-c1ccc(F)cc1 [Compound 29, 2-(4-Fluorophenyl)-5-(2-phenoxyethoxy)pyridazin-3(2H)-one]	3.87 µM	5.86%	> 30 µM
O=c1cc(OCCOc2ccc(F)cc2F)ccn1-c1ccc(F)cc1 [Compound 34, 4-(2-(2,4-difluorophenoxy)ethoxy)-1-(4-fluorophenyl)pyridin-2(1H)-one]	1.45 µM	1.32%	> 30 µM
O=c1cc(OCCOc2cc(F)ccc2F)ccn1-c1ccc(F)cc1 [Compound 35, 4-(2-(2,5-difluorophenoxy)ethoxy)-1-(4-fluorophenyl)pyridin-2(1H)-one]	1.46 µM	2.27%	> 30 µM
O=c1cc(OCCOc2c(F)cccc2F)ccn1-c1ccc(F)cc1 [Compound 36, 4-(2-(2,6-difluorophenoxy)ethoxy)-1-(4-fluorophenyl)pyridin-2(1H)-one]	3.18 µM	-1.16%	> 30 µM
O=c1cc(OCCOc2ccccc2Cl)ccn1-c1ccc(F)cc1 [Compound 37, 4-(2-(2-chlorophenoxy)ethoxy)-1-(4-fluorophenyl)pyridin-2(1H)-one]	1.84 µM	2.05%	> 30 µM
O=c1cc(OCCOc2cccc(Cl)c2)ccn1-c1ccc(F)cc1 [Compound 38, 4-(2-(3-chlorophenoxy)ethoxy)-1-(4-fluorophenyl)pyridin-2(1H)-one]	0.98 µM	0.85%	> 30 µM
O=c1cc(OCCOc2cccnc2F)ccn1-c1ccc(F)cc1 [Compound 40, 1-(4-fluorophenyl)-4-(2-((2-fluoropyridin-3-yl)oxy)ethoxy)pyridin-2(1H)-one]	4.74 µM	-4.22%	> 30 µM
N#Cc1ccc(OCCOc2ccn(-c3ccc(F)cc3)c(=O)c2)cc1 [Compound 42, 4-(2-((1-(4-fluorophenyl)-2-oxo-1,2-dihydropyridin-4-yl)oxy)ethoxy)benzonitrile]	1.13 µM	0.74%	> 30 µM
COCc1ccc(OCCOc2ccn(-c3ccc(F)cc3)c(=O)c2)cc1 [Compound 43, 1-(4-fluorophenyl)-4-(2-(4-(methoxymethyl)phenoxy)ethoxy)pyridin-2(1H)-one]	> 10 µM	37.3%	> 30 µM
O=c1cc(OCCOc2cccnc2)ccn1-c1ccc(F)cc1 [Compound 44, 1-(4-fluorophenyl)-4-(2-(pyridin-3-yloxy)ethoxy)pyridin-2(1H)-one]	10 µM	1.83%	> 30 µM
O=c1cc(OCCOc2cncc(Cl)c2)ccn1-c1ccc(F)cc1 [Compound 46, 4-(2-((5-chloropyridin-3-yl)oxy)ethoxy)-1-(4-fluorophenyl)pyridin-2(1H)-one]	2.79 µM	0.41%	> 30 µM
O=c1cc(OCCOc2cnccc2Cl)ccn1-c1ccc(F)cc1 [Compound 47, 4-(2-((4-chloropyridin-3-yl)oxy)ethoxy)-1-(4-fluorophenyl)pyridin-2(1H)-one]	> 10 µM	36.7%	> 30 µM
O=c1cc(OCCOc2cccnc2Cl)ccn1-c1ccc(F)cc1 [Compound 48, 4-(2-((2-chloropyridin-3-yl)oxy)ethoxy)-1-(4-fluorophenyl)pyridin-2(1H)-one]	5.56 µM	-2.79%	> 30 µM
O=c1cc(OCCOc2ccccn2)ccn1-c1ccc(F)cc1 [Compound 50, 1-(4-fluorophenyl)-4-(2-(pyridin-2-yloxy)ethoxy)pyridin-2(1H)-one]	1.94 µM	-0.52%	> 30 µM
O=c1cc(OCCOc2ncccc2F)ccn1-c1ccc(F)cc1 [Compound 51, 1-(4-fluorophenyl)-4-(2-((3-fluoropyridin-2-yl)oxy)ethoxy)pyridin-2(1H)-one]	1.28 µM	0.2%	> 30 µM
O=c1cc(OCCOc2ccc(F)cn2)ccn1-c1ccc(F)cc1 [Compound 52, 1-(4-fluorophenyl)-4-(2-((5-fluoropyridin-2-yl)oxy)ethoxy)pyridin-2(1H)-one]	1.06 µM	0.26%	> 30 µM
O=c1cc(OCCOc2cccc(Cl)n2)ccn1-c1ccc(F)cc1 [Compound 53, 4-(2-((6-chloropyridin-2-yl)oxy)ethoxy)-1-(4-fluorophenyl)pyridin-2(1H)-one]	4.27 µM	-1.66%	> 30 µM
N#Cc1cccnc1OCCOc1ccn(-c2ccc(F)cc2)c(=O)c1 [Compound 56, 2-(2-((1-(4-fluorophenyl)-2-oxo-1,2-dihydropyridin-4-yl)oxy)ethoxy)nicotinonitrile]	> 10 µM	18%	> 30 µM
N#Cc1ccc(OCCOc2ccn(-c3ccc(F)cc3)c(=O)c2)nc1 [Compound 58, 6-(2-((1-(4-fluorophenyl)-2-oxo-1,2-dihydropyridin-4-yl)oxy)ethoxy)nicotinonitrile]	1.38 µM	1.06%	> 30 µM
N#Cc1cccc(OCCOc2ccn(-c3ccc(F)cc3)c(=O)c2)n1 [Compound 59, 6-(2-((1-(4-fluorophenyl)-2-oxo-1,2-dihydropyridin-4-yl)oxy)ethoxy)picolinonitrile]	> 10 µM	35.9%	> 30 µM
